Laboratory results taken from patent US7317014B2, “Bio-active pyrimidine molecules” (Orchid Research Laboratories, Ltd., priority 2002, dated 2008).

Legend:
Male Wistar rats = test: Rat carrageenan paw edema test; format: in vivo; details: oral
COX-2 = biological target: T1, COX-2 (Homo sapiens, UniProt P35354); test: Human whole blood assay, COX-2 inhibition (PGE2 after LPS); format: cell-based; details: Conc. 0.1 μM, 24 h
T1 construct: incubation of human blood with lipopolysaccharide (LPS), which induces COX-2 production in the blood; endogenous in cells; host or cells: fresh human whole blood from male volunteers, LPS-stimulated, aspirin-pretreated
T1 sequence (P35354 18-604): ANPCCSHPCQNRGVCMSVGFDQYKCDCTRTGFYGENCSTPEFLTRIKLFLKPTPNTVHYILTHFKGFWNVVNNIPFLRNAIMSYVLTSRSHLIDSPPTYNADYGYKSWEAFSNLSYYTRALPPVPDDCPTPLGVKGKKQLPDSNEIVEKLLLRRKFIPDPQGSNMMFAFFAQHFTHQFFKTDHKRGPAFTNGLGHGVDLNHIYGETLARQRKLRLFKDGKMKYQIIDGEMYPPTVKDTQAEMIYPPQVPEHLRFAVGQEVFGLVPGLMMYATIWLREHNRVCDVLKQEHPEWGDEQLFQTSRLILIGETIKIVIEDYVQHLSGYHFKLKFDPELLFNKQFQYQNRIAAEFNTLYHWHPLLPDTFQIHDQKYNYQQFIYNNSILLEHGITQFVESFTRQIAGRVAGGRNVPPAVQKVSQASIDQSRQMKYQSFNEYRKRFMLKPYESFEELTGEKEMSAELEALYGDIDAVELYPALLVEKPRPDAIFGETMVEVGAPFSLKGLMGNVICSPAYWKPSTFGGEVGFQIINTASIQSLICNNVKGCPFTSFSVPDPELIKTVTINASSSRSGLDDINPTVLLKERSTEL
Protocol: The COX-2 inhibition activity of the compounds illustrated in the examples was determined by the following method. Human Whole Blood Assay Human whole blood provides a protein and cell rich milieu appropriate for the study of biochemical efficacy of anti-inflammatory compounds such as selective COX-2 inhibitors. […] This is correlating with the observation that COX-2 inhibitors have no effect on prostaglandin E2 (PGE2) production in normal blood. These inhibitors are active only after incubation of human blood with lipopolysaccharide (LPS), which induces COX-2 production in the blood. Method Fresh blood was collected in tubes containing potassium EDTA by vein puncture from male volunteers. The subjects should have no apparent inflammatory conditions and not taken NSAIDs for atleast 7 days prior to blood collection. Blood was treated with aspirin in vitro (10 μg/ml, at time zero) to inactivate COX-1, and then with LPS (10 μg/ml) along with test agents or vehicle. The blood was incubated for 24 h at 37° C., after which the tubes were centrifuged, the plasma was separated and stored at −80° C. (J. Pharmacol. Exp. Ther., 271, 1705, 1994; Proc. Natl. Acad. Sci. USA., 96, 7563, 1999). The plasma was assayed for PGE2 using Cayman ELISA kit as per the procedure outlined by the manufacturer (Cayman Chemicals, Ann Arbor, USA). The plasma was also tested for TNF-α, IL-1β, and IL-6 using appropriate human ELISA kit as per the procedure of manufacturer (Cayman Chemicals, Ann Arbor, USA).

TNF-α = TNF-α production from LPS-stimulated human monocytes (ELISA); format: cell-based; details: Monocyte, Conc. 1 μM
NCI-H460 = test: DTP human tumor cell line one-dose prescreen, NCI-H460; format: cell-based; details: Concentration (100 μm), Lung NCI-H460, test/control (T/C)
Protocol: (§1) The current assay utilizes a 384 well plate format and fluorescent staining technologies resulting in greater screening capacity for testing of synthetic samples. Cell Lines The cell lines of the cancer screening panel are grown in RPMI 1640 medium containing 5% fetal bovine serum and 2 mM L-glutamine. For a typical screening experiment, cells are inoculated into 96 well microtiter plates in 100 μL. After cell inoculation, the microtiter plates are incubated at 37° C., 5% CO2, 95% air and 100% relative humidity for 24 h prior to addition of experimental drugs. The cells are plated a densities of 5000 cells/well (MCF7), 1000 cells/well (NCI-H460), and 7500 cells/well (SF-268) to allow for varying doubling time of the cell lines. Each plate contains all three cell lines, a series of dilutions of standard agents, total kill wells and appropriate controls. Plates are incubated under standard conditions for 24 hours prior to addition of experimental compounds or extracts. Addition of Experimental Agents (Pure Compounds) […] Two standard drugs, meaning that their activities against the cell lines are well documented, are tested against each cell line: NSC 19893 (5-FU) and NSC 123127 (Adriamycin). Endpoint Measurement After compound addition, plates are incubated at standard conditions for ?hours, 10 μl/well Alamar Blue is added and the plates are incubated for an additional 4 hours. Fluorescence is measured using an excitation wavelength of 530 nm and an emission wavelength of 590 nm. Calculation of Percent Test Cell Growth/Control (Untreated) Cell Growth (T/C) Calculation of Percent Test Cell Growth/Control (Untreated) Cell Growth (T/C) Percent growth is calculated on a plate-by-plate basis for test wells relative to control wells. Percent Growth is expressed as the ratio of fluorescence of the test well to the average fluorescence of the control wells ×100.

MCF7 = test: DTP human tumor cell line one-dose prescreen, MCF7; format: cell-based; details: Concentration (100 μm), Breast MCF7, test/control (T/C)
Protocol: as §1

SF-268 = test: DTP human tumor cell line one-dose prescreen, SF-268; format: cell-based; details: Concentration (100 μm), CNS SF-268, test/control (T/C)
Protocol: as §1

CS(=O)(=O)c1ccc(-c2nc(C(F)(F)F)nc(Cl)c2-c2ccc(F)cc2)cc1 [Example 6, 4-chloro-5-(4-fluorophenyl)-6-[4-(methylsulfonyl)phenyl]-2-(trifluoromethyl)pyrimidine]
Rat Paw Edema model % Inhibition (10 mg/kg body weight) (Male Wistar rats): 64% | inhibition at 0.1 µM (COX-2): 51.9% | inhibition at 1 µM (TNF-α): 51.5% | Percentage Growth Lung NCI-H460 (NCI-H460): 0 | Percentage Growth Breast MCF7 (MCF7): 0 | Percentage Growth CNS SF-268 (SF-268): 12 | melting point: 195 to 197 °C
